These results are taken from patent US20080207708A1, “Oxazole and Thiazole Compounds and Their Use in the Treatment of Pge2 Mediated Disorders” (GLAXO GROUP LIMITED, priority 2005, published 2008).

One test relates to gastric lesions in rats. The settings on record: lesions induced by taurocholate acid, aspirin or indomethacin, J. Pharmacol. Exp. Ther. 1992, 263(1), 374-380; cited from earlier work.
For test [1], the target named is T1, EP1 receptors (Homo sapiens, UniProt P34995).
T1 sequence (P34995 1-402): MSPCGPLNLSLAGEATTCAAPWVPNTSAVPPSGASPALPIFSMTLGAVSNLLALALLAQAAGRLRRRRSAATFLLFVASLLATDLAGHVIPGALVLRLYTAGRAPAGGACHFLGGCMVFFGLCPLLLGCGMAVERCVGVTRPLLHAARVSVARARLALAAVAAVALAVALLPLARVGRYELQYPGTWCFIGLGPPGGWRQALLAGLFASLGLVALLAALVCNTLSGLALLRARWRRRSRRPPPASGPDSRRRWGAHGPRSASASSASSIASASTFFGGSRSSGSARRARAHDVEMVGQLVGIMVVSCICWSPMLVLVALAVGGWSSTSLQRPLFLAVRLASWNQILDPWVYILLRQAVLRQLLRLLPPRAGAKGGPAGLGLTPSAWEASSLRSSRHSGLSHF
As to the kind of experiment: human EP1 calcium mobilisation assay (CHO-K1 cells, FLIPR, PGE2). It is filed as cell-based. Also noted: expressed in transfected cells; host or cells: CHO-K1 cells, pCIN vector. The settings on record: free bases or sodium salts; averages of a number of experiments; read-out: functional pKi value, human EP1 calcium mobilisation assay (converted). The method in brief:
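CHO-K1 cells stably transfected with human EP1 cDNA, loaded with Fluo-4 AM after 24 h culture at 37° C. Compounds added first, then PGE2; antagonism read as inhibition of PGE2-induced intracellular calcium rise on FLIPR. pIC50 taken as concentration giving half-maximal inhibition, from curve fitting.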

Test [2] addresses T1, EP1 receptors. Put plainly: Binding assay for the human prostanoid EP1 receptor (competition with [3H]-PGE2). The arrangement: expressed in transfected cells; host or cells: CHO-K1 cells, membrane fraction. The settings on record: [3H]-PGE2 competition; averages of a number of experiments; read-out: pIC50 value, binding assay for the human prostanoid EP1 receptor (converted). The method in brief: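 Competition against 3 nM (final) tritiated PGE2 at 30° C for 30 min, pH 6 MES assay buffer, using membranes of stably transfected CHO-K1 cells. Filter-retained counts by scintillation; nonlinear curve fitting gives concentration inhibiting 50% of specific binding.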

The subject of test [3] is rat model of chronic constriction injury. As to conditions: Anesthesia and Analgesia 2001, 93, 1012-7; cited from earlier work.
The subject of test [4] is rodent model of post-operative pain. The settings on record: Anesthesia and Analgesia 2001, 92, 233-238; cited from earlier work.

With `O=C(O)Cc1ccc(CCNS(=O)(=O)c2ccc(Cl)cc2)cc1` [BM 13505], the gastric lesions entry in the test with gastric lesions in rats is given as “inhibit gastric lesions”.
For `CC(C)COc1ccc(Cl)cc1Nc1nc(-c2nc3ccc(CN4CCCC4)cc3[nH]2)cs1` [Example 181, N-{5-Chloro-2-[(2-methylpropyl)oxy]phenyl)-4-[5-(1-pyrrolidinylmethyl)-1H-benzimidazol-2-yl]-1,3-thiazol-2-amine], the Ki at EP1 receptors [1] is greater than 1000 nM. Besides, the IC50 on EP1 receptors [2] was no more than 1000 nM.
For `CC(C)COc1ccc(Cl)cc1Nc1nc(-c2nc3ccc(CN4CCCCC4)cc3[nH]2)cs1` [Example 182, N-{5-Chloro-2-[(2-methylpropyl)oxy]phenyl}-4-[5-(1-piperidinylmethyl)-1H-benzimidazol-2-yl]-1,3-thiazol-2-amine], in that order: greater than 1000 nM and no more than 1000 nM.
Regarding `CC(C)COc1ccc(Cl)cc1Nc1nc(-c2nc3ccc(CN4CCN(C)CC4)cc3[nH]2)cs1` [Example 183, N-{5-Chloro-2-[(2-methylpropyl)oxy]phenyl}-4-{5-[(4-methyl-1-piperazinyl)methyl]-1H-benzimidazol-2-yl}-1,3-thiazol-2-amine], on EP1 receptors [1], the Ki is less than 1000 nM. Moreover, the IC50 on EP1 receptors [2] was no more than 31.6 nM.
Take `Cc1cc(Cl)ccc1S(=O)(=O)NC[C@H]1C2CCC(CC2)[C@@H]1/C=C\CCCC(=O)O` [ONO-8711]: the hyperalgesia and allodynia entry in test [3] is “reduces hyperalgesia and allodynia”. Moreover, the mechanical hyperalgesia result in test [4] is listed as “inhibits mechanical hyperalgesia”.
As to `O=C(O)CCc1ccccc1CC1C2CCC(O2)C1c1nc(C(=O)NCCCCC2CCCCC2)co1` (stereo not shown) [SQ 33961], the gastric lesions result in the test on gastric lesions in rats is “inhibit gastric lesions”.
